Consider one molecule from article PMC4259467, “Molecular Cloning, Characterization and Positively Selected Sites of the Glutathione S-Transferase Family from Locusta migratoria” (PLoS ONE, 2014).

Test in all cases: spectrophotometric GST assay, steady state
Holding throughout (assay type): biochemical
Holding throughout (settings): co-substrate GSH; pH and temperature not given; read-out: K m ^CDNB

One test has as its target T1, LmGSTZ1 (Locusta migratoria, UniProt V9Q4A6).
T1 construct: gene GSTz1; full-length ORF in pET28a, E. coli BL21(DE3), His-tag Ni-NTA purified
T1 sequence (V9Q4A6 1-217): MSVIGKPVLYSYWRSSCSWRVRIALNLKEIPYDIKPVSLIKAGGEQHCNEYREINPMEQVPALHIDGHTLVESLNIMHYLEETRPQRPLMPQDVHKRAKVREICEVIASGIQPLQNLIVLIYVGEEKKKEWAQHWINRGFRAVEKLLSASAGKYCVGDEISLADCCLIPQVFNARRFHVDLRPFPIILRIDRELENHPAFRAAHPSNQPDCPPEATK
From the text: spectrophotometric GST assay, steady state on LmGSTZ1

The target in another test is T2, LmGSTS9 (Locusta migratoria, UniProt V9Q315).
T2 construct: gene GSTs9; full-length ORF in pET28a, E. coli BL21(DE3), His-tag Ni-NTA purified
T2 sequence (V9Q315 1-204): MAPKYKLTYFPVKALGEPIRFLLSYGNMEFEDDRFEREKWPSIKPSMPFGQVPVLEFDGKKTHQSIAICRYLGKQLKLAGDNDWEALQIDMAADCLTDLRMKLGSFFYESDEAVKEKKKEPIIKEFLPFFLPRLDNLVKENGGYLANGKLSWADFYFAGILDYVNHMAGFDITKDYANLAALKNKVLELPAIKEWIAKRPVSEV
The source says:
spectrophotometric GST assay, steady state on LmGSTS9

The target in a further test is T3, LmGSTS10 (Locusta migratoria, UniProt V9Q3X5).
T3 construct: gene GSTs10; full-length ORF in pET28a, E. coli BL21(DE3), His-tag Ni-NTA purified
T3 sequence (V9Q3X5 1-204): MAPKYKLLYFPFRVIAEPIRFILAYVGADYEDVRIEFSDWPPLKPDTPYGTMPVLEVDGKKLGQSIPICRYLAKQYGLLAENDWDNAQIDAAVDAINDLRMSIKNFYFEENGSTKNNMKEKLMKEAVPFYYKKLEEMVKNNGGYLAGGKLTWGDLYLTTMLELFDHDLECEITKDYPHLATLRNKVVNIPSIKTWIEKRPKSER
From the text:
spectrophotometric GST assay, steady state on LmGSTS10

Another test concerns the target T4, LmGSTS5 (Locusta migratoria, UniProt F4YUJ4).
T4 construct: full-length ORF in pET28a, E. coli BL21(DE3), His-tag Ni-NTA purified
T4 sequence (F4YUJ4 1-202): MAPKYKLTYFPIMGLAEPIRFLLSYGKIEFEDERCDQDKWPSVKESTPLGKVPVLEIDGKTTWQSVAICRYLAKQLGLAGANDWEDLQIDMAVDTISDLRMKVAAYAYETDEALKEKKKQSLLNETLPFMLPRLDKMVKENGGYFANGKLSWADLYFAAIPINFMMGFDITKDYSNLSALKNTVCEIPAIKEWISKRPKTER
From the text:
spectrophotometric GST assay, steady state on LmGSTS5

The target in another test is T5, LmGSTO3 (Locusta migratoria, UniProt V9Q2Q7).
T5 construct: gene GSTo3; full-length ORF in pET28a, E. coli BL21(DE3), His-tag Ni-NTA purified
T5 sequence (V9Q2Q7 1-241): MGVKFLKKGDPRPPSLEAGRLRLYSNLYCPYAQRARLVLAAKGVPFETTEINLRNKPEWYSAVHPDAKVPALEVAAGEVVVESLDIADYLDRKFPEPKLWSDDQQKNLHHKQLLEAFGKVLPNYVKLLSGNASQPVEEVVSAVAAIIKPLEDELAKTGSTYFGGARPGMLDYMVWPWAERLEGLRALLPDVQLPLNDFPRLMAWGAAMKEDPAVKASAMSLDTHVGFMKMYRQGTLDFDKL
From the text:
spectrophotometric GST assay, steady state on LmGSTO3

A further test concerns the target T6, LmGSTE1 (Locusta migratoria, UniProt V9Q4G7).
T6 construct: gene GSTe1; full-length ORF in pET28a, E. coli BL21(DE3), His-tag Ni-NTA purified
T6 sequence (V9Q4G7 1-222): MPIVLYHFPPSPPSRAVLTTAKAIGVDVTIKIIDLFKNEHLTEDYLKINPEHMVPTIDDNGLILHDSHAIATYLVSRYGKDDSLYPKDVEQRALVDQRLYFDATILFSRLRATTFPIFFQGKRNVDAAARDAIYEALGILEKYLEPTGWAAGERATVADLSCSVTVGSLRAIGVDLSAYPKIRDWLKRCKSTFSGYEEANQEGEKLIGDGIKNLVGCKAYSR
From the text: spectrophotometric GST assay, steady state on LmGSTE1

A further test deals with T7, LmGSTT2 (Locusta migratoria, UniProt V9Q331).
T7 construct: gene GSTt2; full-length ORF in pET28a, E. coli BL21(DE3), His-tag Ni-NTA purified
T7 sequence (V9Q331 1-231): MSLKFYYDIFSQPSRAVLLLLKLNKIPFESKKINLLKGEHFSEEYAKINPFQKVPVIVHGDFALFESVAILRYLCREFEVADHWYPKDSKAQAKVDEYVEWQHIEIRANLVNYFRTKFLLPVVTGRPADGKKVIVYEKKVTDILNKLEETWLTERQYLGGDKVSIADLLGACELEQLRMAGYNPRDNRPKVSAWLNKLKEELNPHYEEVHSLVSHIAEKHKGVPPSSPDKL
From the text: spectrophotometric GST assay, steady state on LmGSTT2

A further test concerns the target T8, LmGSTD5 (Locusta migratoria, UniProt V9Q4A2).
T8 construct: gene GSTd5; full-length ORF in pET28a, E. coli BL21(DE3), His-tag Ni-NTA purified
T8 sequence (V9Q4A2 1-224): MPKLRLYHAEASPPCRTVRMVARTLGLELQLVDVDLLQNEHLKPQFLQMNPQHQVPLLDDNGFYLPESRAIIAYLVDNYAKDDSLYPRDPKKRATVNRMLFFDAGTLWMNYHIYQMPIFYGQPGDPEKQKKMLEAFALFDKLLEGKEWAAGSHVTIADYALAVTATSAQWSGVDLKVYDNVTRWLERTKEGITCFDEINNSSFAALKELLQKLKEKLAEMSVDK
From the text: spectrophotometric GST assay, steady state on LmGSTD5

The target in another test is T9, LmGSTD3 (Locusta migratoria, UniProt V9Q4H6).
T9 construct: gene GSTd3; full-length ORF in pET28a, E. coli BL21(DE3), His-tag Ni-NTA purified
T9 sequence (V9Q4H6 1-222): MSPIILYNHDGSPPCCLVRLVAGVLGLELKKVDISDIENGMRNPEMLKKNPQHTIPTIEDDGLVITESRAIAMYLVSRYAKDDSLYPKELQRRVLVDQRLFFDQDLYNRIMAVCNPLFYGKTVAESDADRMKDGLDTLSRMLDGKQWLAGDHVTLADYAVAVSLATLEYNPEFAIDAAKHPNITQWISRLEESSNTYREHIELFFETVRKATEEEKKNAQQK
The source says:
spectrophotometric GST assay, steady state on LmGSTD3

Structures are written as SMILES.

Turning to `O=[N+]([O-])c1ccc(Cl)c([N+](=O)[O-])c1` [CDNB], the Km at LmGSTZ1 worked out at 452 ± 58 µM; on LmGSTS9, 351 ± 26 µM; at LmGSTS10, 311 ± 18 µM; on LmGSTS5, 253 ± 26 µM; on LmGSTO3, 216 ± 4 µM; at LmGSTE1, 7 ± 1 µM. Further, the Km on LmGSTT2 amounted to 393 ± 49 µM; at LmGSTD5, 21 ± 1 µM; on LmGSTD3, 102 ± 10 µM.
